Experiment [1] relates to Streptomyces MBT3. In words: TLC biogram / agar overlay antimicrobial assay of EtOAc extracts of Streptomyces MBT3 cultures treated with plant hormones. The experiment is classed as cell-based, Streptomyces sp MBT3 (indicator strain B. subtilis). The following applies: methyl-jasmonate 100 μM or salicylic acid 250 μM added to 7 day cultures, 24 hours; B. subtilis indicator. Here is the method:
All media for growth of Streptomyces are described in (Kieser et al., 2000). For the preparation of Streptomyces cultures, spores were obtained from SFM agar plates and inoculated at a density of 5×10^6 into 20 ml liquid minimal media with mannitol and glycerol as the carbon sources culture media in a 250 ml Erlenmeyer flask and incubated at 30° C. in a rotary shaker (250 rpm). Mycelia were precipitated by centrifugation for 10 minutes at 12,000 g. Each replicate of culture supernatant was extracted twice with an equal amount (40 ml in total) of analytically pure EtOAc (Sigma-Aldrich St. Louis, Mo., USA). Two grams of Na2SO4 was then added into the organic phase to remove remaining water and was evaporated under vacuum at 38° C. Samples were then re-dissolved in Methanol-d4 (99.8%) (Cambridge Isotope Laboratories, Inc., Andover, Mass., USA) for NMR analysis. 1.5 ml of the culture was collected every three hours and centrifuged. […]
Actinomycetes are very abundantly present in the plant rhizosphere. […] The ethyl acetate extract of the culture fluid of MBT3 was analyzed further for metabolic profile and antimicrobial activity against Bacillus subtilis.
Antimicrobial activity of the extracts was analyzed using thin layer chromatography (TLC) biograms. […]

The test system of experiment [2] is Bacillus subtilis 168. In words: Antibiotic MIC tests in microtiter plates.
The test system of experiment [3] is Legionella pneumophila. The conditions noted are these: Sasaki et al., 2012; cited from earlier work.

Counter-ions that a name gives are not always drawn.

On to `O=C(O)c1ccccc1O` [Salicylic acid (sodium salt), Salicylic acid], for which the “effect on antimicrobial activity (bioactivity) of MBT3” value in experiment [1] is recorded as “no effect”. For the same compound, in experiment [2] (Bacillus subtilis, 168, compound alone (Table 4)), the minimum inhibitory concentration (MIC) is > 1500 µg/mL.
For `Nc1ccccc1C(=O)O` [anthranilic acid], the growth inhibitory effect result in experiment [3] is reported as “mild growth inhibitory effect”. Moreover, in experiment [2] (compound itself, at concentrations below 5 mg/ml), the “activity against B. subtilis” value is reported as “did not show any activity”.
Turning to `CC/C=C\CC1C(=O)CCC1CC(=O)OC` (centres unmarked) [methyl jasmonate], the “effect on antimicrobial activity (bioactivity) of MBT3” value in experiment [1] is “strongly enhanced”.

A word on the MIC: it is the lowest concentration found to suppress growth.
